Where two headings read alike, the source gives them in different places.
What was measured:
HCV genotype 1b = assay: HCV 1b replicon luciferase assay; format: cell-based; conditions: Table 1, Huh7 HCV 1b replicon, luciferase reporter, 48 hours, read-out: 1b EC50
Method in brief: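 Huh7 cells carrying a genotype 1b replicon with stable luciferase reporter, 10k cells/well, were treated 48 h at 37 °C with 10-point 5-fold dilutions from 25 μM (0.1% DMSO), in duplicate. Replication was read as Steady-Glo luminescence.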

[1] = Caco-2 permeability testing; format: in vitro ADME, human; conditions: human, 90 min; for Papp A→B at 90 min, 10 µM: read-out: Permeability (second figure of Efflux/permeability), Papp (A-B); for Papp B→A at 90 min, 10 µM: read-out: Efflux (first figure of Efflux/permeability), Papp (B-A)
From the text: Intestinal epithelium permeability is a critical characteristic that determines the rate and extent of human absorption and affects bioavailability of a drug candidate. Poor intestinal permeability leads to limited absorption. Generally, higher absorption is preferred. The Caco-2 cell line is a human colon adeno-carcinoma cell line that resembles the epithelial lining of the human small intestine. Several transport proteins that are expressed in human intestinal epithelium are also expressed in the Caco-2 cell model. Some transporter proteins are efflux systems which mediate the secretion of compounds from inside the cell back to the apical lumen (representative of the intestinal lumen), limiting overall absorption. In a permeability assay, the apparent permeability coefficient is measured between the apical to basolateral sides of a cell monolayer, Papp (A-B), and the basolateral to the apical side, Papp (B-A). Papp (A-B)<2×10^−6 cm/s is predictive of low permeability to the basolateral side, 2×10^−6 cm/s<Papp (A-B)<20×10^−6 cm/s is predictive of medium permeability, and Papp (A-B)>20×10^−6 cm/s is predictive of high permeability. In the B-A permeability assay, Papp (B-A) is measured and compounds evaluated for efflux potential. Together, these assay results are reported as a ratio of Papp (B-A) to Papp (A-B). Papp (B-A)/Papp (A-B)>3 are likely to be transported by one of the efflux systems, and have poor absorption. Papp (B-A)/Papp (A-B)<3 are likely to show reasonable intestinal absorption. An in vitro drug absorption assay suitable for use in predicting intestinal absorption of the compounds useful in the methods of the invention is described in this example. The embodiments of this assay described in this example were developed by Shanghai ChemPartner Co., Ltd., a corporation of China with its principal office located at 720 Cailun Road, Building No. 3, Shanghai 201203, China.
Caco-2 (ATCC, catalog No. HTB-37™) cells are cultured in growth medium (MEM+10% FBS+1% NEAA). The growth medium is prepared by adding 50 mL FBS and 5 mL NEAA to 445 mL of MEM or by adjusting the final volume according to actual needs. Trypsin-EDTA (Invitrogen, Cat #25200-072) is also used.
Hanks Balanced Salt Solution (HBSS, Invitrogen, Cat #14025-092) with 25 mM HEPES, pH 7.4, HBSS buffer with 0.2% DMSO (50 μL DMSO into 25 ml HBSS buffer), and HBSS buffer with 0.4% DMSO (100 μL DMSO into 25 ml HBSS buffer) are used.
10 mM stock solutions of a compound is prepared in DMSO and Lucifer Yellow in assay buffer using the formula (Actual Weight/Molecular Weight)/mL solvent=10 mM. Erythromycin, Metoprolol, and Atenolol are used as reference compounds. Donor solutions (10 μM for compounds and 5 μM for Lucifer Yellow) are prepared. For A-B, 4 μL of 10 mM compound stock solution and 2 μL of 10 mM Lucifer Yellow stock solution are loaded into 4 mL of HBSS buffer, and centrifuged (5 min, 4000 rpm) to precipitate undissolved particles. Supernatants are collected for compound dosing. For B-A, 4 μL (compounds) of 10 mM compound stock solution is added to 4 mL HBSS buffer with 0.2% DMSO, and centrifuged (5 min, 4000 rpm) to precipitate undissolved particles. Supernatants are collected for compound dosing.
Receiver solutions are prepared. For A-B, the solution is HBSS buffer with 0.4% DMSO. For B-A, 2 μL of 10 mM Lucifer Yellow stock solution is added to 4 mL of HBSS buffer with 0.2% DMSO. Compound solutions are prepared for standard curve (3 μM/1 μM/0.2 μM/0.04 μM/0.01 μM/0.005 μM):
1× solution: 3 μL of 20× solution (0.1-60 μM)+57 μL 0.4% DMSO HBSS+60 μL acetonitrile (ACN) with internal standard (IS, 200 ng/mL Osalmid). The assay was performed as described below
Stock cultures are maintained in MEM+10% FBS+1% NEAA, grown in 75 cm^2 tissue culture treated flasks and split (passed) 2 times weekly to maintain desired confluence. For maintenance passage, trypsinized cells are routinely distributed into new flasks at a standard passage ratio of 1:4. […]

[2] = Liver microsome stability, mouse; format: in vitro ADME, CD-1 mouse
From the text: (§1) Metabolic stability assays are designed to measure the stability of a test compound in a variety of assay matrices from human and animal species. From a metabolism perspective, a drug would be relatively stable, have a small first-pass effect, and maintain an effective concentration in blood for a reasonable period of time. A microsomal preparation from the liver contains all CYP isozymes and other membrane-bound drug metabolizing enzymes which are responsible for the metabolism for the majority of drugs in humans. Metabolic stability in liver microsomes can determine half-life (T1/2) and intrinsic clearance (Clint). The determination of Clint may be useful to determine whether metabolism is the major elimination pathway when it is compared to total body clearance in vivo. For high metabolic stability in liver microsomes: […] Human, Sprague Dawley rat, and CD-1 mouse liver microsome samples were purchased from BD Gentest. An in vitro metabolic stability assay suitable for use in predicting first pass metabolism of the compounds useful in the methods of the invention is described in this example. […] 6 mM NADPH in 0.1 M K-phosphate buffer is prepared by dissolving 25.1 mg of NADPH tetrasodium salt in 5 mL of K-phosphate buffer. […] The plate is pre-incubated at 37° C. for 10 minutes. 15 μL of NADPH stock solution (6 mM) is added to the wells designated for Time 60 and timed. At 30 min, 15 min, and 5 min, 15 μL of NADPH stock solution (6 mM) is added to the wells. At the end of incubation, 135 μL of ACN containing IS is added to all the wells (60 min, 30 min, 15 min, 5 min and 0 min). Then 15 μL of NADPH stock solution (6 mM) is added to the wells designated as Time 0.

[3] = Liver microsome stability, rat; format: in vitro ADME, Sprague Dawley rat
From the text: as §1

[4] = Liver microsome stability, human; format: in vitro ADME
From the text: as §1

Compound | EC50 (HCV genotype 1b; Hepatitis C virus, Huh-7, 48 h) | Papp A→B at 90 min, 10 µM ([1]; Caco-2, pH 7.4, Caco-2, A-B) | Papp B→A at 90 min, 10 µM ([1]; Caco-2, pH 7.4, Caco-2, B-A) | other results
Cc1ccc(C(=O)Nc2nn(C)c3nc(N4CCCCCC4)ccc23)s1 [compound 841] | 1600 nM | 9.7 ×10⁻⁶ cm/s | 1.9 ×10⁻⁶ cm/s | –
O=C(NC1CCNCC1)c1nn(Cc2ccccc2Cl)c2nc(N3CCCCCC3)ccc12 [compound 853] | 2900 nM | – | – | Papp A→B at 90 min, 10 µM ([1]; pH 7.4, Caco-2, A-B): 0.4 ×10⁻⁶ cm/s; Papp B→A at 90 min, 10 µM ([1]; pH 7.4, Caco-2, B-A): 0.4 ×10⁻⁶ cm/s
Cn1nc(C(=O)NC2CCN(S(C)(=O)=O)CC2)c2ccc(N3CCCCCC3)nc21 [compound 1063] | – | 50 ×10⁻⁶ cm/s | 16 ×10⁻⁶ cm/s | EC50 (HCV genotype 1b): 3900 nM
Cn1nc(C(=O)NC2CCN(CC3CCOCC3)CC2)c2ccc(N3CCCCCC3)nc21 [compound 1072] | 2500 nM | 5.4 ×10⁻⁶ cm/s | 4.6 ×10⁻⁶ cm/s | –
CCC(CC)Oc1ccc2c(C(=O)NC3CCN(CC4CCCCC4)CC3)nn(C)c2n1 [compound 1074] | 880 nM | 6.6 ×10⁻⁶ cm/s | 1.6 ×10⁻⁶ cm/s | –
COc1ccc(CN2CCC(NC(=O)c3nn(C)c4nc(N5CCCCCC5)ccc34)CC2)cc1 [compound 1116] | – | 0.5 ×10⁻⁶ cm/s | 0.3 ×10⁻⁶ cm/s | EC50 (HCV genotype 1b): 1300 nM
Cn1nc(-c2cnc(C(=O)NCc3cccs3)s2)c2ccc(N3CCCCCC3)nc21 [compound 1129] | 830 nM | 6 ×10⁻⁶ cm/s | 4 ×10⁻⁶ cm/s | –
Cn1nc(C(=O)NCc2cccs2)c2cc(N3CCCCC3)cnc21 [compound 1146] | 7500 nM | 22 ×10⁻⁶ cm/s | 21 ×10⁻⁶ cm/s | –
Cn1nc(C(=O)NC2CCN(CC3CCCCC3)CC2)c2ccc(N3CCCCCCC3)cc21 [compound 1150] | 600 nM | 1.4 ×10⁻⁶ cm/s | 5.7 ×10⁻⁶ cm/s | –
Clc1ccc(Cn2nc(COCCN3CCCC3)c3ccc(N4CCCCCCC4)nc32)cc1 [compound 1203] | 3300 nM | 7.8 ×10⁻⁶ cm/s | 7.3 ×10⁻⁶ cm/s | –
CCN1CCC(NC(=O)c2nn(C)c3nc(N4CCCCCCC4)ccc23)CC1 [compound 1225] | 1200 nM | 6.4 ×10⁻⁶ cm/s | 3.2 ×10⁻⁶ cm/s | –
CN1CCC(NC(=O)c2nn(C)c3nc(N4CCCCCCC4)ccc23)CC1 [compound 1306] | 360 nM | 9.1 ×10⁻⁶ cm/s | 4.4 ×10⁻⁶ cm/s | –
CC(C)N1CCC(NC(=O)c2nn(C)c3nc(N4CCCCCCC4)ccc23)CC1 [compound 1307] | 1000 nM | 9.6 ×10⁻⁶ cm/s | 4.2 ×10⁻⁶ cm/s | –
CCCC(C)CN1CCC(NC(=O)c2nn(C)c3nc(N4CCCCCCC4)ccc23)CC1 (stereo not shown) [compound 1308] | 480 nM | 0.4 ×10⁻⁶ cm/s | 0.2 ×10⁻⁶ cm/s | –
Cn1nc(C(=O)NC2CCN(CCN3CCCCCC3)CC2)c2ccc(N3CCCCCCC3)nc21 [compound 1310] | 230 nM | 1.3 ×10⁻⁶ cm/s | 2.1 ×10⁻⁶ cm/s | –
CC1CCCCN1CCN1CCC(NC(=O)c2nn(C)c3nc(N4CCCCCC4)ccc23)CC1 (stereo not shown) [compound 1425] | 500 nM | 3 ×10⁻⁶ cm/s | 4 ×10⁻⁶ cm/s | –
CC1CCCN1CCCc1nn(C)c2nc(N3CCCCCCC3)ccc12 (stereo not shown) [compound 1452] | 1200 nM | – | – | mouse liver microsome (MLM), % parent remaining ([2]; after 15 min): 1.7 % parent remaining; mouse liver microsome (MLM), % parent remaining ([2]; after 30 min): 0.9 % parent remaining; mouse liver microsome (MLM), % parent remaining ([2]; after 60 min): 0.3 % parent remaining; rat liver microsome (RLM), % parent remaining ([3]; after 15 min): 2 % parent remaining; rat liver microsome (RLM), % parent remaining ([3]; after 30 min): 0.8 % parent remaining; rat liver microsome (RLM), % parent remaining ([3]; after 60 min): 0.5 % parent remaining; human liver microsome (HLM, % parent remaining) ([4]; after 15 min): 32 % parent remaining; human liver microsome (HLM, % parent remaining) ([4]; after 30 min): 13 % parent remaining; human liver microsome (HLM, % parent remaining) ([4]; after 60 min): 3 % parent remaining
Cn1nc(C(=O)NC2CCN(CCN3CCCC3)CC2)c2ccc(NC3CCCCCCC3)nc21 [compound 1469] | 250 nM | 0.9 ×10⁻⁶ cm/s | 2.9 ×10⁻⁶ cm/s | –
Cn1nc(C(=O)NC2CCN(CCN3CCOCC3)CC2)c2ccc(NC3CCCCCCC3)nc21 [compound 1471] | 870 nM | 10.9 ×10⁻⁶ cm/s | 9.6 ×10⁻⁶ cm/s | –
CCCN1CCC(NC(=O)c2nn(C)c3nc(NC4CCCCCCC4)ccc23)CC1 [compound 1475] | 830 nM | 5.9 ×10⁻⁶ cm/s | 6.3 ×10⁻⁶ cm/s | –
O=C(NC1CCN(CCN2CCCCC2)CC1)c1nn(CC(F)F)c2nc(N3CCCCCC3)ccc12 [compound 1488] | 640 nM | 3.3 ×10⁻⁶ cm/s | 3.5 ×10⁻⁶ cm/s | –
Cn1nc(C(=O)NC2CCN(CCN3CCC(CO)CC3)CC2)c2ccc(N3CCCCCC3)nc21 [compound 1560] | 860 nM | 2 ×10⁻⁶ cm/s | 13.1 ×10⁻⁶ cm/s | –
CC1CCC(C)N1CCN1CCC(NC(=O)c2nn(C)c3nc(N4CCCCCC4)ccc23)CC1 (stereo not shown) [compound 1562] | 1900 nM | 6.7 ×10⁻⁶ cm/s | 6.3 ×10⁻⁶ cm/s | –

Source: US20120232062A1, “AZAINDAZOLES TO TREAT FLAVIVIRIDAE VIRUS INFECTION” (EIGER BIOPHARMACEUTICALS, INC., priority 2009, published 2012)
